Measured values as given in ChEMBL document CHEMBL3638466 (2015).

Molecular target: Maternal embryonic leucine zipper kinase (Homo sapiens, UniProt Q14680)
Experiment: Kinase Assay: MELK activity was determined in the presence or absence of compounds using fluorescein isothiocyanate-labeled (FITC-labeled) histone H3 peptide as a substrate. The extent of FITC-labeled histone H3 peptide phosphorylation was measured by immobilized metal ion affinity-based fluorescence polarization (IMAP) technology (Sportsman J R, et al., Assay Drug Dev. Technol. 2: 205-14, 2004) …
Assay type: single protein

Chain of Maternal embryonic leucine zipper kinase (Q14680 whole entry): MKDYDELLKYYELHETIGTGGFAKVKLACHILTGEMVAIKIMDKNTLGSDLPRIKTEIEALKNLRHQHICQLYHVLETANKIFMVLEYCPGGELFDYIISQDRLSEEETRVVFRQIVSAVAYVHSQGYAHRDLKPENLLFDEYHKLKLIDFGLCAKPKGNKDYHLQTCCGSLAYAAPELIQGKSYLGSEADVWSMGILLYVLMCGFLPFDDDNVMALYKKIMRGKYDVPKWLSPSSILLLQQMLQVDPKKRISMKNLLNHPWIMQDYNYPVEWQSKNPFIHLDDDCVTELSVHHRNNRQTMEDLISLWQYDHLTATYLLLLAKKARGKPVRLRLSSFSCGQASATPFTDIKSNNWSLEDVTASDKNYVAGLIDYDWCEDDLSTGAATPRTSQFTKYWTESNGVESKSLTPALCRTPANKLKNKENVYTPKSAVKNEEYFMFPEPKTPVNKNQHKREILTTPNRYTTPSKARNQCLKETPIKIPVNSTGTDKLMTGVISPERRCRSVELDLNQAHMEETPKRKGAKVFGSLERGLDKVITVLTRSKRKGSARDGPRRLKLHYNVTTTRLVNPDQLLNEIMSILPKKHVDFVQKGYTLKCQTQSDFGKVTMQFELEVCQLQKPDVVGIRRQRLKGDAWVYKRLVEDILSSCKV

## CC(=O)c1cnc2ccc(-c3cc(F)c(O)c(Cl)c3)nc2c1N[C@H]1CC[C@H](NC(=O)[C@@H]2CCCN2)CC1
  IC50: 2.4 nM

## CC(=O)c1cnc2ccc(-c3cc(Cl)c(O)c(Cl)c3)nc2c1NC[C@H]1CC[C@H](N(C)C)CC1
  IC50: 0.6 nM
